Entries after “also recorded” stand apart in the source; their conditions may differ.
Columns and labels:
CsgE = experiment: Pulldown assay of different parts of CsgA with CsgE; assay type: binding, E. coli; conditions: C-terminal MBP tag on CsgA parts
CsgB [1] = conditions: cited from earlier work
Description: CsgFC was flexible, and was observed as fuzzy densities on the extracellular side of the CsgFG channel (Fig. 1c and Supplementary Fig. 1d), which should be responsible for interacting with CsgB. To further clarify CsgF function, we first performed a pulldown assay using CsgG as a bait. […] Therefore, CsgF ...

CsgB [2] = experiment: Pulldown assay of CsgB by CsgF domains; assay type: binding, E. coli; conditions: CsgB C-terminal MBP tag, CsgF parts N-terminal MBP tag; western blot
CsgA [3] = conditions: CsgF and CsgB as baits (N-terminal MBP tag), CsgA C-terminal MBP tag
Method: The cells were induced with 0.5 mM IPTG for 4 h at 37 °C. […] After incubation for 20 min, the mixture was loaded to a Strep-Tactin column (IBA). The beads were washed four times with a buffer having 25 mM Tris-HCl at pH 8.0, 150 mM NaCl, and eluted in a buffer having 25 mM Tris-HCl at pH 8.0, 150 mM NaCl, and 2.5 mM desthiobiotin. […] The samples were analyzed by 15% SDS–PAGE and detected by western blotting.

[4] = tested on: PapD2 and CpxP passage through CsgG; conditions: cited from earlier work
Description: Tyr51, Asn55, and Phe56 residues of CsgG were reported to constitute three stacked concentric rings to form a pore structure in the nonameric channel, which was essential to limit the passage of the folded proteins[22] (Fig. 2a).

CsgG [5] = experiment: Pulldown assay of CsgF variants/domains with CsgG as bait; assay type: binding, E. coli K12; conditions: CsgF variants with C-terminal MBP tag
Method: The procedure of CsgG purification was similar to that of the CsgFG complex. […] After incubation for 30 min, the mixture was loaded into a Strep-Tactin column (IBA). […] Individual CsgG and CsgF variants were purified as input by Strep-Tactin and Ni-NTA, respectively. The samples were analyzed by 15% SDS–PAGE and stained with Coomassie blue.
CsgFGBD-MBP mutant variants were purified as soluble protein by Ni-NTA. CsgG were purified as membrane protein by Strep-Tactin and substituted by amphipole A8-35. CsgFGBD-MBP mutant variants (36 μM) and CsgG nonamer (2 μM) were mixed together at 4 °C for 2 h and then incubated with equal volume of Strep-Tactin beads at 4 °C for 1 h.
Supplementary Figure 5. Interaction mode between CsgFN and CsgG. a, Interaction of CsgFN and CsgG. […] Two adjacent subunits of CsgG are shown in magenta and cyan, respectively. b, Hydrogen bonds and electrostatic interaction between CsgFN and CsgG. Hydrogen bonds are shown as red […]
aromatic residues in CsgG. d, The hydrophobic interaction between CsgFN and CsgG. e, Pulldown assay between the CsgF(C-terminal MBP tag) mutant variants and CsgG. […] Source data are provided as a Source Data file.
(§1) (1 picture or pasted object on this page, not shown here)

CsgA [6] = conditions: cited from earlier work
CsgG nonamer = molecular target: T1, CsgG nonamer (Escherichia coli, UniProt P0AEA2); assay type: binding, E. coli K12; conditions: given in reply to Reviewer #1
T1 construct: made in house; host or cells: E. coli BL21 (DE3)
T1 sequence (P0AEA2 whole entry, looked up): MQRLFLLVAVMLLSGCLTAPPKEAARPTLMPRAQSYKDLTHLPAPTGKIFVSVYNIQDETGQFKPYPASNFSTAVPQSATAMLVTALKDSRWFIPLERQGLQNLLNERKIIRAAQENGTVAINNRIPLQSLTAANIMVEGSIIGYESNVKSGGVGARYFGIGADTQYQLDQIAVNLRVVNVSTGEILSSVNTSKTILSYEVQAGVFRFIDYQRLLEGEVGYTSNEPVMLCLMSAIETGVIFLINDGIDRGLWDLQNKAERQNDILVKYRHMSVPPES
Description: as §1
are provided as a Source Data file.

CsgG [7] = experiment: Pulldown assay of CsgE with CsgG; assay type: binding, E. coli; conditions: western blot
Method: The CsgE and CsgG were transformed in E. coli BL21 (DE3) strain. […] After incubation for 30 min, CsgE alone and CsgE-CsgG mixture were loaded to Strep-Tactin columns (IBA), respectively. The beads were washed for four times with a buffer having 25 mM Tris pH 8.0, 150 mM NaCl and 0.02% DDM and then eluted by an elution buffer (25 mM Tris pH 8.0, 150 mM NaCl, 0.02% DDM and 25 mM desthiobiotin). […] The samples were analyzed using 15% SDS–PAGE and detected using western blotting.

Molecule: CsgAR1-5: five C-terminal repeating units of CsgA
- interaction of CsgA part with CsgE in pulldown (CsgE): CsgE bound to CsgAR1-5

Molecule: CsgF: soluble accessory factor of the curli secretion system
- binding to CsgB (CsgB [1]): can also bind to CsgB
- pulldown of CsgB (CsgB [2]): full-length CsgF and CsgFC could
- interaction with CsgA in pulldown (CsgA [3]): did not directly interact with CsgA
- leakage of PapD2 and CpxP in the presence of CsgF [4]: considerably reduced leakage
- CsgF-CsgG interaction in pulldown (CsgG [5]): CsgG can pulldown both the full-length CsgF and CsgFN

B1: CsgE: soluble accessory factor that binds CsgG (protein)
chain: VEVEVPGLLTDHTVSSIGHDFYRAFSDKWESDYTGNLTINERPSARWGSWITITVNQDVIFQTFLFPLKRDFEKTVVFALIQTEEALNRRQINQALLSTGDLAHDEF
modifications: left off: His tag (from the Ni-NTA purification of the input), end not stated, state not stated
- inhibition of CsgA self-assembly into amyloid fibers (CsgA [6]): inhibit self-assembly of CsgA into amyloid fibers
- CsgE-CsgG ITC interaction strength (in words) (CsgG nonamer): mM level
- interaction of CsgE with CsgG in pulldown (CsgG [7]): CsgG could pull-down CsgE; also recorded: interacts with the CsgG channel
